Here are results for 14 compounds from patent EP4721758A1, “NOVEL MEDICINE FOR TREATING OSTEOSARCOMA” (Japanese Foundation For Cancer Research, priority 2023, dated 2024).

Series [1] deals with G-292 cells. Briefly: Cell viability, BH3 mimetic drug sensitivity. It is filed as cell-based, human. To be noted: cells with BCL2L1 amplification, Fig. 4-1. How it is done:
(§1) Specifically, four types of osteosarcoma cells (i.e., NOS-10 cells, Sa-xeno-147 cells, G-292 cells, and Sa-xeno-184 cells) were treated with six types of BH3 mimetics (i.e., obatoclax, navitoclax, venetoclax, A-1331852, AZD5991, and MIK665), and the cell viability of the osteosarcoma cells was measured.

The test system of series [2] is osteosarcoma cells. In words: Cell viability, combined use of Mcl-1 inhibitor and Bcl-xL inhibitor. The series is classed as cell-based. An excerpt:
In this example, AZD5991 or MIK665 was used as an Mcl-1 inhibitor, and A-1331852 was used as a Bcl-xL inhibitor.

In series [3] the test system is NOS-10 cells. In words: Cell viability (CellTiter-Glo). The series is classed as cell-based, human. The following applies: for IC50 value / growth inhibitory effect: IGF-1R inhibitor in combination with Mcl-1 inhibitors such as obatoclax, AZD5991, and MIK665, Fig. 5-1; for IC50 values: in the presence of 40 nM obatoclax, Fig. 4-4. The procedure: In this example, the drug sensitivity of MIK665, an Mcl-1 inhibitor, was evaluated in NOS-10 cells. Various concentrations (i.e., 0, 1, 3, 10, 30, 100, 300, 1000, 3000, 10000, 30000 nM) of MIK665 (TargetMol) were administered, and cell viability was measured using CellTiter-Glo assay reagent 72 hours after drug treatment. As a control, osteosarcoma cells MG-63 cells, without amplification of the copy number of MCL1, were used. Data are shown as MG-63 mean ± SD (n = 3).
as §1
Meanwhile, the combined effect of AZD5991 and 3 µ(micro)M Navitoclax on cell viability of NOS-10 cells was examined. Cell viability was measured using CellTiter-Glo assay reagent 72 hours after drug treatment. Data are shown as mean ± SD (n = 3).
(§2) Specifically, the present inventors investigated the combined effects of 40 nM obatoclax with DOX (Fig. 4-4(E), Fig. 4-5(A)), with CDDP (Fig. 4-4(F), Fig. 4-5(B)), and with MTX (Fig. 4-4(G), Fig. 4-5(C)) on cell viability in NOS-10 cells and Sa-xeno-147 cells. Cell viability was measured for each cell 72 hours after each drug treatment using CellTiter-Glo assay reagent. All data are shown as mean ± SD (n = 3). IC50 values were calculated and the data were graphed using GraphPad Prism.
To identify suitable combination partners of Mcl-1 inhibitors such as obatoclax for osteosarcoma treatment, further drug screening was performed using an in-house library of inhibitors in the presence of obatoclax in osteosarcoma cells. Specifically, the effect of combination of 35 nM obatoclax with an inhibitor out of 94 molecular targeted drugs in the library on cell viability of NOS-10 cells was examined. Cell viability was measured using CellTiter-Glo assay reagent 72 hours after the cells were treated with each combination of drugs. All data are shown as mean ± SD (n = 3). GraphPad Prism was used to calculate IC50 values and graph the data.
(ATP-based viability assays read luminescence as a measure of living cells.)

Series [4] relates to Sa-xeno-184 cells. In words: Cell viability, BH3 mimetic drug sensitivity. The series is classed as cell-based, human. To be noted: cells with MCL1 amplification, Fig. 4-1. How it is done:
as §1

Series [5] deals with Sa-xeno-147 cells. Briefly: Cell viability (CellTiter-Glo). To be noted: for cell viability: BH3 mimetic drug sensitivity, Fig. 4-1; for IC50 values: in the presence of 40 nM obatoclax, 72 hours, Fig. 4-5. The series is classed as cell-based, human. The procedure:
as §1, §2

Series [6] deals with Mcl-1 (Homo sapiens, UniProt Q07820). The following applies: cited from earlier work.
Series [7] concerns the target BCL-xL (Homo sapiens, UniProt Q07817). To be noted: cited from earlier work.
The test system of series [8] is NOS-10 cells. Briefly: Mouse xenograft model, tumor volume. It is filed as in vivo, SCID beige mice. To be noted: obatoclax 5 mg/kg, OSI906 25 mg/kg, orally three times a week; MCL1-amplified xenograft; Fig. 6-2 (B). The procedure: Using obatoclax or AZD5991 as an Mcl-1 inhibitor, the present inventors used mouse xenograft models of osteosarcoma with MCL1-amplified osteosarcoma (NOS-10 cells) and without MCL1-amplified osteosarcoma (Sa-xeno-147 cells) to determine the efficacy of the combination of obatoclax or AZD5991 with OSI906. To prevent side effects such as weight loss, the drugs were administered three times a week at relatively low concentrations (experimental schemes are shown in Figures 5A and 5D). The changes in tumor volume of NOS-10 cells and Sa-xeno-147 cells by treatment of drugs was examined as follows. NOS-10 cells or Sa-xeno-147 cells were subcutaneously inoculated into immunodeficient SCID beige mice (CB17.Cg-PrkdcscidLystbg-J/CrlCrlj, Charles River Laboratories, Inc.) (5-6×10^6 cells/mouse or 1×10^6 cells/mouse) and orally treated three times a week with vehicle (30% PEG400, 0.5% Tween80, 5% propylene glycol in water), with obatoclax (5 mg/kg), with OSI906 (25 mg/kg), or with obatoclax + OSI906 (5 mg/kg and 25 mg/kg, respectively). […] All data are shown as mean ± SD (n = 4, n = 5, or n = 6). *p < 0.05 and **p < 0.01 are determined using the Mann-Whitney U test.

Series [9] addresses BCL-2 (Homo sapiens, UniProt P10415). The following applies: cited from earlier work.
The test system of series [10] is osteosarcoma cells. Briefly: Inhibitor library drug screening, cell viability (CellTiter-Glo). To be noted: nine osteosarcoma cell lines and two PDC, 72 hours, heatmap Fig. 1A. The series is classed as cell-based, human. The procedure:
The nine human osteosarcoma cell lines (MG-63 cells, NY cells, HOS cells, HuO9 cells, HuO-3N1 cells, SJSA-1 cells, NOS-1 cells, NOS-10 cells, and G-292 clone A141B1 (G-292) cells) were purchased from the American Type Culture Collection, the RIKEN BioResource Research Center, or the Japanese Collection of Research Bioresources Cell Bank (JCRC) and used at lower passage numbers.
Specifically, • MG-63 cells, NY cells, and HOS cells were cultured in 96-well plates using MEM (Wako) comprising 10% FBS (CORNING), 1% non-essential amino acid solution (Wako), and 100 µ(micro)g/mL kanamycin (MEIJI), • HuO9 cells, HuO-3N1 cells, SJSA-1 cells, NOS-1 cells, and NOS-10 cells were cultured in 96-well plates using RPMI-1640 medium (Wako) comprising 10% FBS and 100 µ(micro)g/mL kanamycin. • G-292 clone A141B1 (G-292) cells were cultured in 96-well plate using McCoy's 5a medium comprising 10% FBS, • Sa-xeno-147 and Sa-xeno-184 cell lines were developed from patient-derived xenograft tumors and were cultured in collagen-coated dishes with RPMI 1640/Ham's F12 (1:1) medium comprising 15% FBS, 20 mM HEPES, and antibiotic-antimycotic solution (Sigma-Aldrich). Cells were cultured at 37°C and 5% CO2.
Cells were seeded in triplicate in 96-well plates (Greiner) or type I collagen-coated plates (IWAKI) at a density of 2000 cells/well and cultured for at least 24 h. After 72 hours of incubation with any of the 96 compounds of the library of the inhibitors, cells were incubated with CellTiter-Glo reagent (Promega) for 2 minutes on a Titramax 100 plate shaker (Heidolph), and after 10 minutes of equilibration, cell viability assays of each osteosarcoma cell were performed by measuring luminescence using a Tristar LB941 multimode microplate reader (Berthold Technologies). The cell viability was calculated as a ratio of the DMSO control to evaluate their effects on osteosarcoma cell proliferation (n=2).

The conditions of series [11]: serum; read-out: maximum concentration of obatoclax in serum (Cmax); cited from earlier work.
Series [12] concerns osteosarcoma cell lines. In words: IC50 of obatoclax, cell viability (CellTiter-Glo). It is filed as cell-based. To be noted: Homo sapiens; 11 osteosarcoma cell lines; 72 hours; compared with Cmax; Fig. 4-3. How it is done: In this example, G-292 cells, NY cells, NOS-1 cells, NOS-10 cells, HuO9 cells, SJSA-1 cells, MG-63 cells, HuO-3N1 cells, HOS cells, Sa-xeno-147 cells, and Sa-xeno-184 cells were used as osteosarcoma cell lines, and LC-2/ad cells, H2228 cells, H226 cells, H3122 cells, and A549 cells were used as lung adenocarcinoma cell lines.
After 72 hours from treatment with obatoclax, the cell viability of each cell was measured using the CellTiter-Glo Assay reagent. The IC50 value was calculated using Prism software.

Where [13] appears, read: BH3 mimetic drug sensitivity, cells with MCL1 amplification, Fig. 4-1.

Sequence of BCL-xL (Q07817 whole entry): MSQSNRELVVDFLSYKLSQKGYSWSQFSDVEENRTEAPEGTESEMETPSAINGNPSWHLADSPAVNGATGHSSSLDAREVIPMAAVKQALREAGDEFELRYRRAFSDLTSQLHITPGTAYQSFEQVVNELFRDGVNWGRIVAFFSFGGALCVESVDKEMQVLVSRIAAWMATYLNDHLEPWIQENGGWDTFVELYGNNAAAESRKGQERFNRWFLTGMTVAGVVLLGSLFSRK
Sequence of BCL-2 (P10415 whole entry): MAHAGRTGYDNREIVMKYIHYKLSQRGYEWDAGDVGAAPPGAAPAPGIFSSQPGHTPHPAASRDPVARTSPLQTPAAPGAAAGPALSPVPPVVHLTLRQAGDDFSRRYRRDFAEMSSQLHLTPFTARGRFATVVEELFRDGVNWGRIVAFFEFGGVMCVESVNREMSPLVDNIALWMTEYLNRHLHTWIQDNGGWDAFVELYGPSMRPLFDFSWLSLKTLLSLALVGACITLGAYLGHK
Sequence of Mcl-1 (Q07820 whole entry): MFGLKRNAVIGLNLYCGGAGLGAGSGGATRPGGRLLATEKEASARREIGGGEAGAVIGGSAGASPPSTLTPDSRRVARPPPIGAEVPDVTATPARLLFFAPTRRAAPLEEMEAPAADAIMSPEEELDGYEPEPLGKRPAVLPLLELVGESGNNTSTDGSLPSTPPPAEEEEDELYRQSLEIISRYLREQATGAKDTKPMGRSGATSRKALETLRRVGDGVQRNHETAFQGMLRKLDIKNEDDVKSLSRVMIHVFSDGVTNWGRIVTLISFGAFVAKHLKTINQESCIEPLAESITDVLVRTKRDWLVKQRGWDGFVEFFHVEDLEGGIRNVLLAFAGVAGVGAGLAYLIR

`Cc1c(-c2ccc(N3CCc4cccc(C(=O)Nc5nc6ccccc6s5)c4C3)nc2C(=O)O)cnn1CC12CC3CC(CC(C3)C1)C2` [A-1331852]: the cell viability result was “most effective in reducing cell viability” in series [1]; “almost no effect on reduction of cell viability” in series [2] (A-1331852 alone, Fig. 3-5, Fig. 3-6); “strong effect on reduction of cell viability” in series [2] (A-1331852 in combination with AZD5991, Fig. 3-5); “strong effect on reduction of cell viability” in [2] (A-1331852 in combination with MIK665, Fig. 3-6).
Take `COc1cc(N2CCC(N)CC2)ccc1Nc1ncc(Cl)c(-c2c[nH]c3ccccc23)n1` [AZD3463]: in series [3] (72 hours), the IC50 value result is “significantly reduced” and the growth inhibitory effect entry is given as “enhanced”.
For the compound `Cc1c2c(nn1C)CSCc1cc(n(C)n1)CSc1cc(c3ccccc3c1)OCCCc1c(C(=O)O)n(C)c3c-2c(Cl)ccc13` [AZD5991], the cell viability result in [4] is reported as “reduce cell viability at relatively low concentrations”; in series [5] it was “moderate inhibitory effects”; in series [3] (AZD5991 combined with 3 µM Navitoclax, 72 hours, Fig. 4-2), “increased the inhibitory effect on cell viability”; in [3] (setting [13]) it was “reduce cell viability at relatively low concentrations”.
In the case of `[NH2][Pt]([NH2])([Cl])[Cl]` [CDDP, cisplatin], the IC50 values entry in [5] and in series [3] (72 hours) was “not decreased” in each case.
`COc1cccc2c1C(=O)c1c(O)c3c(c(O)c1C2=O)C[C@@](O)(C(=O)CO)C[C@@H]3O[C@H]1C[C@H](N)[C@H](O)[C@H](C)O1` [DOX, Doxorubicin]: the IC50 values entry in series [5] and in [3] (72 hours) was “not decreased” throughout.
In the case of `CN(Cc1cnc2nc(N)nc(N)c2n1)c1ccc(C(=O)N[C@@H](CCC(=O)O)C(=O)O)cc1` [MTX, methotrexate], the IC50 values entry in series [5] and in series [3] (72 hours) was “not decreased” in each case.
Consider `O=C(c1ccccc1O)c1[nH]c(Cl)c(Cl)c1-n1c(C(=O)c2ccccc2O)cc(Cl)c1Cl` [Marinopyrrole A], for which, in series [6], the “binding to Mcl-1” value is “bind to Mcl-1”. In addition, the “binding to BCL-XL” value in series [7] was “not to Bcl-XL”.
Consider `C[C@]1(O)C[C@@H](c2nc(-c3ccc4ccc(-c5ccccc5)nc4c3)c3c(N)nccn32)C1` [OSI906], for which the tumor growth result in series [8] is recorded as “little effect on tumor growth”. For the same compound, in series [3] (72 hours), the IC50 value result is reported as “significantly reduced” and the growth inhibitory effect entry was “enhanced”.
Regarding `Cc1c(-c2c(-c3ccc(F)o3)sc3ncnc(O[C@H](Cc4ccccc4OCc4ccnn4CC(F)(F)F)C(=O)O)c23)ccc(OCCN2CCN(C)CC2)c1Cl` [S63845], the “binding to BCL-2” value in series [9] is “not to bind”. Also, the “binding to BCL-XL” value in series [7] is given as “not to bind”.
As for `Cc1cc(OCCCc2c3n(c4c(-c5c(C)nn(C)c5C)c(Cl)ccc24)[C@H](C)CN(c2cn(C)c4ccc(C(=O)O)cc24)C3=O)cc(C)c1Cl` [VU661013], the “inhibition of BCL-2” value in series [9] was “does not significantly inhibit”. In series [7], the “inhibition of BCL-xL” value is given as “does not significantly inhibit”.
For `CC(C)C[C@H](NC(=O)[C@H](Cc1ccccc1)NC(=O)c1cnccn1)B(O)O` [bortezomib], the “osteosarcoma cell proliferation (cell viability)” value in series [10] was “extensive inhibition of osteosarcoma cell proliferation”.
As to `CC(C)C[C@H](NC(=O)[C@H](CCc1ccccc1)NC(=O)CN1CCOCC1)C(=O)N[C@@H](Cc1ccccc1)C(=O)N[C@@H](CC(C)C)C(=O)[C@@]1(C)CO1` [carfilzomib], in series [10], the “osteosarcoma cell proliferation (cell viability)” value is “extensive inhibition of osteosarcoma cell proliferation”.
One may read the IC50 as the concentration that inhibits the measured activity by half. A high value points to weaker potency in that assay. Consider `COC1=CC(c2cc3ccccc3[nH]2)=N/C1=C\c1[nH]c(C)cc1C` [obatoclax], for which, in series [11], the Cmax is 176 nM. For the same compound, the IC50 in series [12] was less than 176 nM.
In the case of MIK665, the cell viability entry in series [4] is recorded as “reduce cell viability at relatively low concentrations”; in [5], “moderate inhibitory effects”; in [3] (setting [13]) it was “reduce cell viability at relatively low concentrations”; in [3] (low concentrations of MIK665 (range 0-30000 nM), 72 hours, compared to MG-63 cells without MCL1 amplification, Fig. 2), “reduced cell viability”.
